Test results from patent US6455045B1, “Immunogenic compounds with in particular an anti-cytokine effect, preparation process, pharmaceutical compositions and kits containing them” (priority 1991, dated 2002).
No end group written: not given here.

Columns and labels:
[1] = tested on: T-cells originating from fresh human blood; format: cell-based
[2] = tested on: HIV-1 env bands (gp160, gp120, gp41); test: Western blot (Abott HIV-1 detection kit) with serums of peptide-immunized mice; format: in vivo; settings: 15 μg per injection days 0, 30, 60, day 70
Procedure: Four batches of five mice were chosen to receive the peptides SI Nos. 1, 2, 6, 10 respectively.
The peptides prepared as described in Example 2 were injected on days 0, 30, 60 in a quantity of 15 μg per injection. On day 70 the mice were sacrificed, their T-cells were isolated (spleen and ganglia) and their serum was stored.

## Cys-Ser-Ala-Thr-Glu-Lys-Leu-Trp-Val-Thr-Val-Tyr-Tyr [SI No. 7]
[1]
  activation of T-cells (incorporation of labelled thymidine): low activation according to a dose-effect curve

## SI No. 2: peptide SI No. 2, a or b form not stated; prepared in proteosomes as in Example 2 (probably 2b); HIV-1 gp41 region 735-753 (DRPEGIEEEGGERDRDRS)
[2]
  Western blot bands showing a signal: gp160 and gp41

## SI No. 1: peptide SI No. 1, a or b form not stated; prepared in proteosomes as in Example 2 (probably 1b); HIV-1 gag P7 region (IARNCRAPRKKG)
[2]
  Western blot bands showing a signal: gp60 and gp120 bands showed a signal

## QLLLNGSLAEEE [SI No. 10]
[2]
  Western blot bands showing a signal: gp60 and gp120 bands showed a signal
[1]
  activation of T-cells (incorporation of labelled thymidine): low activation according to a dose-effect curve

## Cys-Gln-His-Leu-Leu-Gln-Leu-Thr-Val-Trp-Gly-Ile-Lys-Glu or Gln-Leu-Glu Gln-Ala-Arg-Ile-Leu-Ala-Val-Glu-Arg-Tyr-Leu-Lys-Asp-Gln [SI No. 5]
[1]
  activation of T-cells (incorporation of labelled thymidine): low activation according to a dose-effect curve

## His-Glu-Asp-Ile-Ile-Ser-Leu-Trp-Asp-Gln-Ser-Leu-Lys [SI No. 6]
[2]
  Western blot bands showing a signal: gp60 and gp120 bands showed a signal
[1]
  activation of T-cells (incorporation of labelled thymidine): low activation according to a dose-effect curve
